The results in this text go back to article PMC13598332, “Selective activation of tetrodotoxin-sensitive sodium channels by AaH-II drives arrhythmogenic late Na^+ current in the heart” (Europace, 2026).

In experiment [1] the target is hNav1.6 (Homo sapiens, UniProt Q9UQD0). The format is cell-based.
Experiment [2] concerns human iPS-derived cardiomyocytes. Nature of the experiment: Automated patch-clamp of Na+ current in human iPS-derived cardiomyocytes. The format is cell-based. The protocol: The control hiPSC cell line (ITXi002-A; IRX5-Wt[16]; RRID:CVCL_B5QD) was generated from primary dermal fibroblasts and previously characterized.[17–19] hiPSCs were maintained at 37°C, 5% CO2, 21% O2 in StemMacs PSC-Brew XF human medium (Miltenyi Biotec, #130-127-865) on culture plates coated with 0.05 mg/mL Matrigel hESC-Qualified Matrix (Corning, #354277) in DMEM F12 (Gibco, #11320033). At 75% confluency, the cells were passaged using the Gentle Cell Dissociation Reagent (StemCell Technologies, #07174).
We generated right ventricular-like cardioids on 96-well low-attachment plates using the Schmidt et al. (2023) protocol.[20] At D15.5, cardioids were pooled, dissociated, and replated as a monolayer in MW12 plates (Falcon, #353047) coated with Matrigel (Corning, #354277) for automated patch-clamp, and as single cells in 35-mm Petri dishes (NUNC #055055) coated with Matrigel for manual patch-clamp. Immediately before patch-clamp recording, cardiomyocytes were single-cell dissociated using Accutase (Sigma, #A6964).
For human iPSC-derived cardiomyocytes recordings, cells were resuspended at 300 000 cells/mL in a solution composed of 50% culture media and 50% extracellular buffer containing (in mM) 140 NaCl, 4 KCl, 2 CaCl2, 1 MgCl2, 5 glucose, and 10 HEPES (pH 7.4, osmolarity 298 mOsm) supplemented with 5 µM nifedipine. Single-hole, low-resistance chips (3–5 MΩ) were used. The intracellular solution contained (in mM) 10 KCl, 110 KF, 10 NaCl, 1 MgCl2, 1 CaCl2, 10 Ethylene Glycol Tetra-acetic Acid (EGTA), and 10 HEPES (pH 7.2, osmolarity 280 mOsm). Currents were recorded and analysed as previously described for stable cell lines.

Experiment [3] concerns human iPS-derived ventricular cardiomyocytes. Format: cell-based. The following applies: 0.1 nM; dynamic clamp, 1.43 Hz, 35–37°C; n = 10.
For experiment [4], the system named is isolated rat heart. The experiment can be described thus: Ex vivo cardiac electrophysiological recordings (Langendorff, MEA). The following applies: for increase in repolarization area of ventricular local field potential: mean ± SEM. The protocol:
Eleven-week-old Wistar-Han rats were first heparinized (heparin sodium, 0.5 U/g i.p.) and then euthanized by i.p. injection of 140 mg/kg pentobarbital (Euthasol®). Hearts were quickly excised and immersed in a cold modified Krebs-Henseleit solution (in mM): 116 NaCl, 5 KCl, 1.1 MgSO4, 7 H2O, 0.35 NaH2PO4, 27 NaHCO3, 10 glucose, and pH 7.4. The aorta was cannulated, and the hearts were perfused on a Langendorff system with warm (36.5–37.5°C) and oxygenated (95% O2/5% CO2) Krebs-Henseleit solution supplemented with 1.8 mM CaCl2, 1 mM lactate, and 0.2 mM pyruvate (control solution) at a constant flow rate of 12 mL/min. Once connected to the Langendorff perfusion system, hearts were perfused with control solution for 10 min to stabilize their activities. Electrical activity of the upper part of the right ventricle was assessed using a 64-electrode array (0.2-mm electrode diameter; 0.36-mm interelectrode distance) connected to an EMS64-USB-1002 amplifier. Single-lead ECG was acquired to monitor global cardiac electrical activity. Data were sampled at 10 kHz per channel and acquired by EMapRecord5 (Mappinglab, Oxford, UK). Data were obtained at baseline (2 min before compound perfusion) and during AaH-II* perfusion for 10 min at various concentrations. Data were analysed using EMapScope5 (Mappinglab, Oxford, UK). Activation times were determined as the point of maximal negative slope. All activation times were related to the timing of the first detected waveform and then used to draw activation maps. An average of three complexes was used for activation time and conduction velocity analyses, while interbeat interval was measured as the average of 10 consecutive intervals. The index of inhomogeneity was calculated as previously described.[23] Arrhythmias were quantified over a period of 2 min in control and after peptide perfusion.

Sequence of hNav1.6 (Q9UQD0 other isoform, or with tags, fused parts or gaps): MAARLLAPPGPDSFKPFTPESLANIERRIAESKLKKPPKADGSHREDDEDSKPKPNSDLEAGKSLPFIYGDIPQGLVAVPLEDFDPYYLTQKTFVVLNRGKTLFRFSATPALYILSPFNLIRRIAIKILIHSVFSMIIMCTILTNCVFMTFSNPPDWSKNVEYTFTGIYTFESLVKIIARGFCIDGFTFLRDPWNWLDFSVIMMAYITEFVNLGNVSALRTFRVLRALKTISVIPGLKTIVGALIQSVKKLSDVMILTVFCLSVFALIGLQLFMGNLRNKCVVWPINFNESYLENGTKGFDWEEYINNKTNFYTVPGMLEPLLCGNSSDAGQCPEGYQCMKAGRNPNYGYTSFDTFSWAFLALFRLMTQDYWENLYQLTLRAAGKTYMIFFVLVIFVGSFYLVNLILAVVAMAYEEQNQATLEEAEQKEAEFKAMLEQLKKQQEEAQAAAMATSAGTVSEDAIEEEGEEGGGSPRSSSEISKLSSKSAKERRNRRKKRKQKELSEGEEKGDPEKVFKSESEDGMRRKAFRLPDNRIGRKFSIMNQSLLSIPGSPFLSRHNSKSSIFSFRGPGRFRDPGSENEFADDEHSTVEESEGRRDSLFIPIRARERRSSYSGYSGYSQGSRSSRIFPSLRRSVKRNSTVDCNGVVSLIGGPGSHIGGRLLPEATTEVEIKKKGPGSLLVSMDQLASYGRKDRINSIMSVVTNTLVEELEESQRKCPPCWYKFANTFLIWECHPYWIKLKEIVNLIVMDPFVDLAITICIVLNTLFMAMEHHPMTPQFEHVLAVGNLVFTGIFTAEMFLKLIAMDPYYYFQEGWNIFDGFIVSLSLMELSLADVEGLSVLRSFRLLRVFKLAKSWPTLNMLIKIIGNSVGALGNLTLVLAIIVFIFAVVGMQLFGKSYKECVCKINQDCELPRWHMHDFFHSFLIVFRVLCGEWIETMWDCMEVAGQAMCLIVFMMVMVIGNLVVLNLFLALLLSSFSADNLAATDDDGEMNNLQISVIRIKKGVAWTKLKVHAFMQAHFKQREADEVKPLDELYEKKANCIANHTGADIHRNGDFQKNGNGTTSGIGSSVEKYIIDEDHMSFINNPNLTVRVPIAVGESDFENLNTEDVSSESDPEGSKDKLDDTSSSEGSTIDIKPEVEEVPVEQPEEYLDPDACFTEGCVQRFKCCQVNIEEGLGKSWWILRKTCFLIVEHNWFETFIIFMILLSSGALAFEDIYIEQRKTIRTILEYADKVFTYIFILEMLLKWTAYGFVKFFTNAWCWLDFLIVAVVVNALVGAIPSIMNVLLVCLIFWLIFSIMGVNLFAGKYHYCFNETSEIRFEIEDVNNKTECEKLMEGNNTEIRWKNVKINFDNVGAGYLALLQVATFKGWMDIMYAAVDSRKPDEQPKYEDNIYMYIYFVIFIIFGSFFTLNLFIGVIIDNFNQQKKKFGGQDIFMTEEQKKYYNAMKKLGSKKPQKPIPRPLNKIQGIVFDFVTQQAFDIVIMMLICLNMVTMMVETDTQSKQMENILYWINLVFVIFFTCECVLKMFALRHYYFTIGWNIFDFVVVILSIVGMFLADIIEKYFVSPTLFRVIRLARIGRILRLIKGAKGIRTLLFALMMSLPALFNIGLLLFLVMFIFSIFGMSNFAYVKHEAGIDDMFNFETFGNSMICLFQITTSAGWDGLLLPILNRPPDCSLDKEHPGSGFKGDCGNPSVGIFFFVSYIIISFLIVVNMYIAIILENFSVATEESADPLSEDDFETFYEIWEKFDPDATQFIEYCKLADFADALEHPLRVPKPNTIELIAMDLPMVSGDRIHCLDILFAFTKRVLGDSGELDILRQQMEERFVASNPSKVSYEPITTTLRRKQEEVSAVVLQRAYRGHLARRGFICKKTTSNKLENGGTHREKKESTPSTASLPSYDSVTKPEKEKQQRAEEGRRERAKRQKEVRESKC

For `CC[C@H](C)[C@H](NC(=O)[C@H](Cc1ccc(O)cc1)NC(=O)CNC(=O)[C@H](CC(=O)O)NC(=O)[C@H](CCCCN)NC(=O)[C@@H](N)C(C)C)C(=O)N[C@H](C(=O)N[C@@H](CC(=O)O)C(=O)N[C@@H](CC(=O)O)C(=O)N[C@H](C(=O)N[C@@H](CC(N)=O)C(=O)N[C@H]1CSSC[C@@H](C(=O)N[C@@H](Cc2c[nH]cn2)C(N)=O)NC(=O)[C@H](CCCCN)NC(=O)CNC(=O)[C@@H]2CCCN2C(=O)CNC(=O)[C@H](CCCCN)NC(=O)[C@H]([C@@H](C)O)NC(=O)[C@H](CCCNC(=N)N)NC(=O)[C@H](C(C)C)NC(=O)[C@H](Cc2c[nH]cn2)NC(=O)[C@H](CC(=O)O)NC(=O)[C@@H]2CCCN2C(=O)[C@H](CC(C)C)NC(=O)[C@H](CCCCN)NC(=O)[C@H](Cc2ccc(O)cc2)NC(=O)[C@@H]2CSSC[C@@H]3NC(=O)[C@H](CCC(=O)O)NC(=O)[C@H](CCC(=O)O)NC(=O)[C@H](CC(N)=O)NC(=O)[C@@H]4CSSC[C@H](NC(=O)[C@H](C)NC(=O)[C@H](CC(N)=O)NC(=O)CNC(=O)[C@H](Cc5ccc(O)cc5)NC(=O)[C@@H]5CCCN5C(=O)[C@H](CO)NC(=O)[C@H](C)NC(=O)[C@H](Cc5c[nH]c6ccccc56)NC(=O)[C@H](CCC(N)=O)NC(=O)[C@H](CSSC[C@H](NC(=O)[C@H](Cc5ccccc5)NC(=O)[C@H](Cc5ccc(O)cc5)NC(=O)[C@H]([C@@H](C)O)NC1=O)C(=O)NCC(=O)N[C@@H](CCCNC(=N)N)C(=O)N[C@@H](CC(N)=O)C(=O)N[C@@H](C)C(=O)N[C@@H](Cc1ccc(O)cc1)C(=O)N4)NC(=O)[C@H](Cc1ccc(O)cc1)NC(=O)CNC(=O)[C@H](CO)NC(=O)[C@H](CCC(=O)O)NC(=O)CNC(=O)[C@H](CCCCN)NC(=O)[C@H](CC(C)C)NC(=O)[C@H](CCCCN)NC(=O)[C@H]([C@@H](C)O)NC3=O)C(=O)N[C@@H](Cc1ccc(O)cc1)C(=O)N2)C(C)C)C(C)C` [AaH-II*], the “activation of hNav1.6 current incl. INaL after TTX block” value in experiment [1] (10 nM AaH-II* applied after 100 nM TTX) is “failed to activate any form of current”. Besides, in experiment [1] (hNav1.6, 10 nM), the “INaL after 1 s depolarization” value is “maintained INaL after 1 s pulse”. For the same molecule, the “shift in voltage-dependence of activation” value in experiment [1] (hNav1.6, 10 nM) is listed as “large AaH-II*-triggered hyperpolarizing shift in voltage-dependence of activation”. For the same molecule, the “concentration at which INaL is triggered / becomes noticeable” value in experiment [1] (hNav1.6, representative traces, test 0 mV) turned out to be 0.1 nM. The entries for the “INaL in human iPS-derived cardiomyocytes” value in experiment [2] (0.1 nM AaH-II*) and in experiment [2] (10 nM AaH-II*) were “triggered a characteristic INaL” and “a greater INaL could be recorded”, respectively. For the same molecule, the “AP duration APD20, APD50, APD90” value in experiment [3] is on record as “increase the AP duration”. Moreover, in experiment [3], the “maximal diastolic potential, AP amplitude, dV/dtmax” value is on record as “not significantly affected”. Besides, the figures for the “increase in repolarization area of ventricular local field potential” value in experiment [4] (0.1 nM) and in experiment [4] (1 nM) were 40.3 ± 8.0% and 140.6 ± 43.0%, respectively. Also, the results for the “arrhythmogenic hearts (hearts with arrhythmias / hearts)” value in experiment [4] (1 nM AaH-II*) and in experiment [4] (10 nM AaH-II*) were 5/7 and 6/7, respectively. In experiment [4] (10 nM), the activation time result is listed as “significantly increases activation time”. The “ventricular bradycardia (rhythm reduction)” value in experiment [4] (10 nM, MEA on right ventricle, 10 min perfusion) is 1.9 fold. Besides, the “cardiac conduction in the right ventricle” value in experiment [4] (0.1 and 1 nM) is “do not affect conduction”. Further, in experiment [4] (0.1 and 1 nM, MEA on right ventricle, 10 min perfusion), the ventricular interbeat interval entry is on record as “no effect on the interbeat interval”.
